{"source": "patent US11395821B2", "about": "“Treatment of EGFR-driven cancer with fewer side effects” (G1 Therapeutics, Inc., priority 2017, dated 2022)", "key": {"[1]": {"assay": "Study G1T38-01: safety and tolerability in healthy subjects", "assay_type": "in vivo, Humans", "description": "Effects on hematologic parameters were not observed due to the limited duration of dosing."}, "[2]": {"system": "H1975 (EGFR^L858R/T790M NSCLC Model)", "assay": "Example 2: Compound IV + erlotinib in H1975 tumor bearing mice", "assay_type": "in vivo", "settings": "Compound IV 50 or 100 mg/kg in combination with erlotinib 70 mg/kg, daily, 18 days", "experimental": "(§1) The x-axis is days of treatment measured in time and the y-axis is tumor volume measured in mm^3.\nCompound IV in combination with the EGFR-TKI erlotinib was tested in an EGFR^L858R/T790M NSCLC model. The combination of Compound IV in dosages of 50 mg/kg and 100 mg/kg+erlotinib was tested and compared to treatment regimens consisting of only Compound IV (in 50 mg/kg dose or a 100 mg/kg) or erlotinib (70 mg/kg). H1975 (EGFR^L858R/T790M NSCLC Model) tumor bearing mice were treated daily. Tumors were measured twice a week until vehicle treated mice tumors reached about 1000 mm^3 (18 days). Data is plotted to compare tumor growth in each cohort during the 18 days of treatment."}, "[3]": {"system": "H1975 (EGFR^L858R/T790M NSCLC Model)", "assay": "Example 3: Compound IV added to afatinib after resistance in H1975 tumor bearing mice", "assay_type": "in vivo", "experimental": "EGFRL858R/T790M NSCLC model (H1975) tumor bearing mice were treated with daily oral doses of vehicle or afatinib (20 mg/kg). Once tumors became resistant to afatinib (˜D18), Compound IV (100 mg/kg) was added to the treatment regimen. Tumors were measured […]. Data is plotted to compare tumor growth in each cohort during the treatment. The x-axis is days of treatment measured in time and the y-axis is tumor volume measured in mm^3.\nCompound IV in combination with the EGFR-TKI afatinib was tested in an EGFR^L858R/T790M NSCLC model to determine the ability of the combination to reverse afatinib resistance. H1975 (EGFR^L858R/T790M NSCLC Model) tumor bearing mice were treated daily with 20 mg/kg of afatinib. Once tumors became resistant to afatinib (about D18), Compound IV (100 mg/kg) was added to the treatment regimen. Tumors were measured twice a week for 40 days. Data is plotted to compare tumor growth in each cohort during treatment."}, "[4]": {"system": "H1975 (EGFR^L858R/T790M NSCLC Model)", "assay": "Example 1: Compound IV + afatinib in H1975 tumor bearing mice", "assay_type": "in vivo", "settings": "Compound IV 50 or 100 mg/kg in combination with afatinib 20 mg/kg, daily, 18 days", "experimental": "as §1\nCompound IV in combination with the EGFR-TKI afatinib was tested in an EGFR^L858R/T790M NSCLC model. The combination of Compound IV in dosages of 50 mg/kg and 100 mg/kg+afatinib was tested and compared to treatment regimens consisting of only Compound IV (in 50 mg/kg dose or a 100 mg/kg) or afatinib (20 mg/kg). H1975 (EGFR^L858R/T790M NSCLC Model) tumor bearing mice were treated daily. Tumors were measured twice a week until vehicle treated mice tumors reached about 1000 mm^3 (18 days). Data is plotted to compare tumor growth in each cohort during the 18 days of treatment."}, "[5]": {"system": "EGFR^ex20ins PDX NSCLC tumor fragments (LU0387, CrownBio)", "assay": "Example 5: Compound IV +/- osimertinib in EGFR ex20ins PDX model", "assay_type": "in vivo, BALB/c nude mice", "settings": "once daily oral gavage", "description": "(§2) The x-axis is days from initiation measured in time and the y-axis is mean tumor volume measured in mm^3.\nTumors continued to be measured until they reached tumor burden (>3000 mm3)."}, "[6]": {"system": "EGFR^ex19del/T790M PDX NSCLC tumor fragments (TM00219, Jackson Labs)", "assay": "Example 4: Compound IV +/- osimertinib in EGFR ex19del/T790M PDX model", "assay_type": "in vivo, NSG mice", "settings": "once daily oral gavage 28 days", "description": "as §2\nThe x-axis is days from initiation measured in time and the y-axis is median tumor volume measured in mm^3.\nAfter 28 days tumors continued to be measured until they reached tumor burden (>2000 mm^3)."}}, "note": "“Also recorded” adds a separate entry of the source.", "data": [{"compound": "CC(C)N1CCN(c2ccc(Nc3ncc4cc5n(c4n3)C3(CCCCC3)CNC5=O)nc2)CC1", "note": "[Compound IV]", "values": [{"measurement": "effect of fed conditions on gastrointestinal tolerability", "setting": "[1]; dosing under fed conditions", "result": "appeared to improve gastrointestinal tolerability"}, {"measurement": "effects on hematologic parameters", "setting": "[1]; limited duration of dosing", "result": "not observed"}, {"measurement": "tolerability", "setting": "[1]; single or twice daily oral doses, 3 to 600 mg/day, healthy male and female subjects", "result": "well to moderately tolerated"}, {"measurement": "most common moderate intensity TEAEs", "setting": "[1]; subjects with moderate tolerability", "result": "gastrointestinal AEs were the most common moderate intensity treatment-emergent AEs"}, {"measurement": "erlotinib resistance (tumor volume)", "setting": "[2]", "result": "reversed erlotinib resistance; also recorded: reverses EGFR-TKI acquired resistance"}, {"measurement": "acquired resistance to afatinib (tumor volume)", "setting": "[3]; afatinib 20 mg/kg daily, Compound IV 100 mg/kg added at about D18, 40 days", "result": "reverses acquired resistance to afatinib"}, {"measurement": "decrease of tumor volume, combination vs Compound IV alone and afatinib alone", "setting": "[3]; as worded in Example 3", "result": "more effective at decreasing tumor volume"}, {"measurement": "afatinib efficacy and time to resistance (tumor volume)", "setting": "[3]; as worded in Example 3: Compound IV 50 or 100 mg/kg in combination with afatinib", "result": "increased the afatinib efficacy and extended the time to resistance"}, {"measurement": "afatinib efficacy and time to resistance (tumor volume)", "setting": "[4]", "result": "increased the afatinib efficacy and extended the time to resistance; also recorded: increases EGFR-TKI efficacy and extends time to resistance"}, {"measurement": "decrease of tumor volume, combination vs Compound IV alone and afatinib alone", "setting": "[4]", "result": "more effective at decreasing tumor volume"}, {"measurement": "tumor growth vs vehicle, combination", "setting": "[5]; Compound IV 100 mg/kg + osimertinib 10 mg/kg", "result": "significant tumor growth delay; also recorded: delays tumor growth"}, {"measurement": "tumor growth vs vehicle, single agent", "setting": "[5]; 17 days, Compound IV 100 mg/kg or osimertinib 10 mg/kg alone", "result": "did not cause an effect"}, {"measurement": "tumor growth vs vehicle, combination", "setting": "[6]; Compound IV 100 mg/kg + osimertinib 2.5 mg/kg", "result": "tumor stasis during dosing that was sustained post treatment; also recorded: delays tumor growth"}, {"measurement": "tumor growth vs vehicle, single agent", "setting": "[6]; Compound IV 100 mg/kg or osimertinib 2.5 mg/kg alone", "result": "modest tumor growth inhibition"}]}]}
